According to ChEMBL document CHEMBL1201862, “PubChem BioAssay data set” (2004):
Calls of active or inactive are those of the source.

Experiments:
[1] = system: BJ; assay: BJ-TERT-LT-ST fibroblast viability loss – cell-based, RAS-independent, luminescence, dose response (AID 1935); format: functional; settings: Homo sapiens;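 also: BJ fibroblasts immortalized with TERT plus LT and ST oncogenes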
[2] = system: BJ; assay: growth inhibition of engineered Ras-driven BJ cells – cell-based, alamar blue fluorescence, cherrypicked samples, dose response (AID 2631); format: functional; settings: Homo sapiens;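 also: confirmatory dose-response assay in RAS-dependent BJ fibroblasts engineered with TERT, LT and ST, with cytotoxicity read by fluorescence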
[3] = viability of HCT116 lacking mutant beta-catenin – cell-based, human colon tumor, dose response (AID 1045); format: functional;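 also: HCT116 colon tumor cells with beta catenin knocked out; cells exposed to compound for 60 hours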
[4] = fluconazole-exposed Candida albicans growth modulators – fluorescence, retest, confirmation (AID 2467); format: functional, cell-based
[5] = system: BJ; assay: cells; format: functional, cell-based; settings: Homo sapiens
[6] = viability of PTEN-deleted HCT116 cells – cell-based, HCT116 PTEN knockout, dose response (AID 1047); format: functional;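 also: HCT116 colon tumor cells with PTEN knocked out; cells exposed to compound for 60 hours before readout; potency for loss of cell viability measured by luminescence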
[7] = NIH-3T3 fibroblast cytotoxicity, dose response, cytotoxicity control, cell-based, fluorescence, Alamar Blue, secondary assay (AID 2327); format: functional;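 also: NIH-3T3 mouse fibroblasts cultured with fluconazole at 8 µg/mL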
[8] = DRD fibroblast viability loss – cell-based, non-viral oncogenic, luminescence, dose response (AID 1934); format: functional; settings: Homo sapiens
[9] = system: BJ; assay: BJ-TERT fibroblast viability loss – cell-based, RAS-independent, luminescence, dose response (AID 1933); format: functional; settings: Homo sapiens
[10] = target: T1, Sentrin-specific protease 6 (Homo sapiens, UniProt Q9GZR1); format: functional;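 also: Luminescence-based dose-response confirmatory assay of SENP6 inhibition, following up an ultra-high-throughput screen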
T1 sequence (Q9GZR1 whole entry): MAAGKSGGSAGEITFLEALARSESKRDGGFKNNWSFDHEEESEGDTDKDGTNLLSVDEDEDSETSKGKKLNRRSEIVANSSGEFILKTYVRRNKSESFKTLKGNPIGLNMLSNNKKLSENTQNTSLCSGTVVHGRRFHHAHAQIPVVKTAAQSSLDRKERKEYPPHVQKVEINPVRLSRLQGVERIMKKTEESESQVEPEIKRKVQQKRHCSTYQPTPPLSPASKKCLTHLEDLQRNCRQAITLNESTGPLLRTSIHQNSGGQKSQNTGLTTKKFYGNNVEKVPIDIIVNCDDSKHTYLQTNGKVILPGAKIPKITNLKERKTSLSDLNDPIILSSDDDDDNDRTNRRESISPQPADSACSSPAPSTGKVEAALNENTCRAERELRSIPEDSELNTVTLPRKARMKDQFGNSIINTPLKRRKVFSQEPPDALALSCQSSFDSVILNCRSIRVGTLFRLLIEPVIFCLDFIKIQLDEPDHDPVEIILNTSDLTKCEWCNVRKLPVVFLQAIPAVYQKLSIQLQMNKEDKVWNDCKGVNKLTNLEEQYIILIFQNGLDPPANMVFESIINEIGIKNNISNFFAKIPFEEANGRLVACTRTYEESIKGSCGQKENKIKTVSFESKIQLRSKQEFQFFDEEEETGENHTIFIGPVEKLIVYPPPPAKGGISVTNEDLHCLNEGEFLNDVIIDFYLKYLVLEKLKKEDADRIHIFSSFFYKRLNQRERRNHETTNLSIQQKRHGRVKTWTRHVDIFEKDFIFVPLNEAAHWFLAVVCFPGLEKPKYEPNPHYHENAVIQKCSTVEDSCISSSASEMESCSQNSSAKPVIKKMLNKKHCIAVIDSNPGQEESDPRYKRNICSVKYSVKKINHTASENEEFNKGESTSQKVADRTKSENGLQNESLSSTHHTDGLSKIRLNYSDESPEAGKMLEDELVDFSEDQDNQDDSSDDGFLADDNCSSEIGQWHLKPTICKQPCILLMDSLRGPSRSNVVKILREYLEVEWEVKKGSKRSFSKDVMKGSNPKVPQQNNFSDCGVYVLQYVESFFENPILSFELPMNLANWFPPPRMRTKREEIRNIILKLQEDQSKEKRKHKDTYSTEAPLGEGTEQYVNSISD

[11] = target: T2, Rac GTPase-activating protein 1 (Homo sapiens, UniProt Q9H0H5); assay: blockers of MgcRacGAP-driven Rac1 GTP hydrolysis – biochemical, ADP Hunter fluorescence, primary and confirmatory, confirmation (AID 624330); format: functional
T2 sequence (Q9H0H5 whole entry): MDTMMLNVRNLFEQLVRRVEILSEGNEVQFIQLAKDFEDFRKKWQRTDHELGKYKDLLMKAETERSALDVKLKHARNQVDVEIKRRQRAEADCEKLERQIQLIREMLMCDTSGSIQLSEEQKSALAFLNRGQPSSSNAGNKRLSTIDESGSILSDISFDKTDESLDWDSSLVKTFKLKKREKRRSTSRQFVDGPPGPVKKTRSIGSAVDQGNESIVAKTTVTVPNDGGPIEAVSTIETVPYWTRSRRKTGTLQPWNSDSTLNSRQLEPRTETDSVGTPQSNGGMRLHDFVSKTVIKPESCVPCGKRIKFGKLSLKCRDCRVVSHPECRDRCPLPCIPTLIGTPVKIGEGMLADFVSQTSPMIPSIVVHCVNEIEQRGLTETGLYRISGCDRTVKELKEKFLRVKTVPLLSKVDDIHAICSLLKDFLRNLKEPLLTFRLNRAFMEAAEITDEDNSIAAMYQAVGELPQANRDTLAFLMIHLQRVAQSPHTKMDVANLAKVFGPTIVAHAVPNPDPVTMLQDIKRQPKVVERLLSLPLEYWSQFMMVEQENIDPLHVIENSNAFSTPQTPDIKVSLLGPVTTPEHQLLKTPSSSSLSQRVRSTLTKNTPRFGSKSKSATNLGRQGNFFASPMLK

[12] = target: T3, Sentrin-specific protease 8 (Homo sapiens, UniProt Q96LD8); format: functional;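 also: luminescence read-out of SENP8 inhibition, dose-response confirmation following an ultra-high-throughput screen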
T3 sequence (Q96LD8 whole entry): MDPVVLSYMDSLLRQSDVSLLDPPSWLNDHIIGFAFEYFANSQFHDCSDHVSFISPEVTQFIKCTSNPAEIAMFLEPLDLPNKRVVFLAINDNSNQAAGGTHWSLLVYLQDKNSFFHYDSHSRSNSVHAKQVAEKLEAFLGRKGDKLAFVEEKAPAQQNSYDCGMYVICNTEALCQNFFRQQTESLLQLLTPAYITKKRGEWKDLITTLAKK

[13] = target: T4, Caspase-3 (Homo sapiens, UniProt P42574); format: functional;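 also: Dose-response selectivity test against caspase-3 for candidate inhibitors of sentrin-specific proteases (SENPs)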
T4 sequence (P42574 whole entry): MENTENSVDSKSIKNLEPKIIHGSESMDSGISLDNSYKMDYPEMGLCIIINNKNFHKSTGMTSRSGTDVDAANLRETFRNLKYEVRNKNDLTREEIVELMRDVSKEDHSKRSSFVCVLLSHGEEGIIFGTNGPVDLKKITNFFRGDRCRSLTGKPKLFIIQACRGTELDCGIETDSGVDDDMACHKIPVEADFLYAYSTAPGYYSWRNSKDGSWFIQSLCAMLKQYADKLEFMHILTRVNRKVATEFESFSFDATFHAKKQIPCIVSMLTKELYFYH

[14] = system: HeLa; assay: ATP-based viability loss in HeLa cells – cell-based, CellTiter-Glo luminescence, cherry-pick samples, cytotoxicity control for MITF activator project, dose response (AID 540259); format: functional; settings: Homo sapiens
[15] = target: T5, Sentrin-specific protease 7 (Homo sapiens, UniProt Q9BQF6); format: functional;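 also: Luminescence-based dose-response confirmation of ultra-high-throughput screening hits, measuring inhibition of SENP7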
T5 sequence (Q9BQF6 whole entry): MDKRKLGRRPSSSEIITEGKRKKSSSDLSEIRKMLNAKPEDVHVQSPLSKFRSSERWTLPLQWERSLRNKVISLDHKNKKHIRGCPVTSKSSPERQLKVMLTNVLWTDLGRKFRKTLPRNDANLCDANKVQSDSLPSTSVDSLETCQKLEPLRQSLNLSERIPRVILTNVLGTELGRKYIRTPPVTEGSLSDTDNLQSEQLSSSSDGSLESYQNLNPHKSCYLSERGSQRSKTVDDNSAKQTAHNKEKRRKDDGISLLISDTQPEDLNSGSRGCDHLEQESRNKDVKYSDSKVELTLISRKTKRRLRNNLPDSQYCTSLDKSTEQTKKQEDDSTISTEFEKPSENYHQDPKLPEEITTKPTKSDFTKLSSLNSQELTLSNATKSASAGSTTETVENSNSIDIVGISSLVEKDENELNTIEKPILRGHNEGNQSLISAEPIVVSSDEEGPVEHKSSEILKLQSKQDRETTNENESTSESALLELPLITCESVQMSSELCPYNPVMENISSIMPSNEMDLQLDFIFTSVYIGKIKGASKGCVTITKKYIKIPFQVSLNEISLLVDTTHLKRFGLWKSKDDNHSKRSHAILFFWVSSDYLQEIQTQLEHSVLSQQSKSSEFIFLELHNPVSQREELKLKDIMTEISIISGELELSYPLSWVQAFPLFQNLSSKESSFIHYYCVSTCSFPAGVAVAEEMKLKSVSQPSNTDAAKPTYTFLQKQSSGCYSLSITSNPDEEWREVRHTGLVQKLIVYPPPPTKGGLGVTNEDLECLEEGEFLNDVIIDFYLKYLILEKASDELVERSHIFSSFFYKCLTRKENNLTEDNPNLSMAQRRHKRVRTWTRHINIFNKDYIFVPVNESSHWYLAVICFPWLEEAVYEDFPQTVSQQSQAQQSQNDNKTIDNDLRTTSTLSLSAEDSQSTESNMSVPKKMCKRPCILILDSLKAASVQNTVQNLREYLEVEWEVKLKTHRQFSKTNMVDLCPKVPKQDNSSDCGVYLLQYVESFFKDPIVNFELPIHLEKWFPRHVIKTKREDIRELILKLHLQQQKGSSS

[16] = system: HEK293; assay: EBV LMP1 TES2 canonical NF-kB signalling blockers – cell-based, HEK293, luciferase, cherry-pick, dose response (AID 588343); format: functional; settings: Homo sapiens

## O=c1c2ccccc2nc(/C=C/c2ccc([N+](=O)[O-])o2)n1CCCO
[1]
  EC50: 3.96 µM (active)
[2]
  EC50: 3.07 µM (active)
[3]
  EC50: < 0.059 µM (active)
[4]
  EC50: 0.503 µM (active)
[5]
  EC50: 7.21 µM (inconclusive)
[6]
  EC50: < 0.059 µM (active)
[7]
  EC50: 7.14 µM (inconclusive)
[8]
  EC50: 5.06 µM (inconclusive)
[9]
  EC50: 6.12 µM (inconclusive)

## CCN(CC)c1ccc(Nc2nc(-c3cccnc3)cs2)cc1
[10]
  IC50: 16.9 µM (active)
[11]
  IC50: 185 µM (active)
[12]
  IC50: 26.7 µM (active)
[13]
  IC50: 21.5 µM (active)
[14]
  AC50: 77 µM (active)
[15]
  IC50: 4.32 µM (active)

## COc1ccc(C=NNc2nc3ccccc3s2)cc1
[16]
  AC50: 2.96 µM (active)
